Literature values, collected in US20240050339A1, “FORMULATION COMPRISING P-MENTHANE-3,8-DIOL” (priority 2020, published 2024).

Key:
Urbani SARS virus = settings: PMD alone, from U.S. Pat. No. 7,872,051
[1] = tested on: SARS-CoV-2 England-2 isolate; settings: one minute, mixed with the virus in the liquid phase

Row | Structure (SMILES) | maximum log reduction (Urbani SARS virus) [log] | anti-viral activity in liquid suspension [1]
1 | CC1CCC(C(C)(C)O)C(O)C1 (stereo not drawn) [PMD, 2-(2-Hydroxypropan-2-yl)-5-methylcyclohexan-1-ol] | 2.5 | 
2 | CCO [ethanol] |  | have anti-viral activity
3 | CC(C)O [isopropanol, propan-2-ol] |  | have anti-viral activity
